Laboratory results reported in patent publication US9932353B2, “Imidazopyrimidine macrocycles as inhibitors of human immunodeficiency virus replication” (VIIV HEALTHCARE UK (NO. 5) LIMITED, priority 2014, dated 2018).
Read-outs that look alike come from different tables or passages of the source.

Test system: recombinant NL-RLuc virus (HIV NL4-3 with Renilla Luciferase) in MT-2 cells
Assay: Inhibition of HIV replication (NL-RLuc virus in MT-2 cells, luciferase readout)
Assay type: cell-based
From the text: Inhibition of HIV Replication:
A recombinant NL-RLuc proviral clone was constructed in which a section of the nef gene from NL4-3 was replaced with the Renilla Luciferase gene. This virus is fully infectious and can undergo multiple cycles of replication in cell culture. In addition, the luciferous reporter provides a simple and easy method for quantitating the extent of virus growth and consequently, the antiviral activity of test compounds. The plasmid pNLRLuc contains the proviral NL-Rluc DNA cloned into pUC18 at the PvuII site. The NL-RLuc virus was prepared by transfection of 293T cells with the plasmid pNLRLuc. Transfections were performed using the LipofectAMINE PLUS kit from Invitrogen (Carlsbad, Calif.) according to the manufacturer and the virus generated was titered in MT-2 cells. For susceptibility analyses, the titrated virus was used to infect MT-2 cells in the presence of compound, and after 5 days of incubation, cells were processed and quantitated for virus growth by the amount of expressed luciferase. Assay media was RPMI 1640 supplemented with 10% heat inactivated fetal bovine serum (FBS), 100 units/ml penicillin G/100 units/ml streptomycin, 10 mM HEPES buffer pH 7.55 and 2 mM L-glutamine. The results from at least 2 experiments were used to calculate the EC50 values. Luciferase was quantitated using the Dual Luciferase kit from Promega (Madison, Wis.). Susceptibility of viruses to compounds was determined by incubation in the presence of serial dilutions of the compound. The 50% effective concentration (EC50) was calculated by using the exponential form of the median effect equation where (Fa)=1/[1+(ED50/drug conc.)^m] (Johnson V A, Byington R T. Infectivity Assay. In Techniques in HIV Research. ed. Aldovini A, Walker B D. 71-76. New York: Stockton Press. 1990).

[1] = NL-RLuc virus, MT-2 cells, 5 days of incubation, 10% FBS, luciferase, read-out: EC50

Compound: Cc1ccc2c(c1)-c1cccc(c1)-c1cn3c(c([C@H](OC(C)(C)C)C(=O)O)c(C)nc3n1)N1CCC(C)(CC1)OCCCC[C@H](C)O2 [Example 1, (2S)-2-(tert-Butoxy)-2-[(22S)-4,17,22,28-tetramethyl-21,27-dioxa-1,5,7,34-tetraazahexacyclo[26.2.2.1^6,^9.1^10,^14.0^2,^7.0^15,^20]tetratriaconta-2,4,6(34),8,10(33),11,13,15(20),16,18-decaen-3-yl]acetic Acid]
- EC50 (MT2, 120 h): 8 nM

Compound: Cc1nc2nc3cn2c(c1[C@H](OC(C)(C)C)C(=O)O)N1CCC(C)(CC1)OCCCCC(C)Oc1ccc(F)cc1-c1cccc-3c1 (stereo partly drawn) [Example 2, (2S)-2-(tert-butoxy)-2-[(22S/R)-17-fluoro-4,22,28-trimethyl-21,27-dioxa-1,5,7,34-tetraazahexacyclo[26.2.2.1^6,^9.1^10,^14.0^2,^7.0^15,^20]tetratriaconta-2,4,6(34),8,10(33),11,13,15(20),16,18-decaen-3-yl]acetic Acid]
- EC50 [1]: 8 nM

Compound: (2S)-2-(tert-butoxy)-2-[(22S/R)-17-fluoro-4,22,28-trimethyl-21,27-dioxa-1,5,7,34-tetraazahexacyclo[26.2.2.1^6,^9.1^10,^14.0^2,^7.0^15,^20]tetratriaconta-2,4,6(34),8,10(33),11,13,15(20),16,18-decaen-3-yl]acetic Acid [Example 3]
- EC50 [1]: 77 nM
